# Assay results reported in patent US20200163897A1, “METHODS OF TREATING LIVER DISEASES ASSOCIATED WITH PORTAL TRACT OR PERIPORTAL INFLAMMATION” (The Regents of the University of California, priority 2017, published 2020).
# Tests used:
# [1] = target: T1, tissue transglutaminase (Rattus norvegicus, UniProt Q9WVJ6); conditions: via inhibition of tissue transglutaminase; cited from earlier work
# T1 construct: host or cells: liver of CCl4-treated animals (in vivo)
# T1 sequence (Q9WVJ6 1-686): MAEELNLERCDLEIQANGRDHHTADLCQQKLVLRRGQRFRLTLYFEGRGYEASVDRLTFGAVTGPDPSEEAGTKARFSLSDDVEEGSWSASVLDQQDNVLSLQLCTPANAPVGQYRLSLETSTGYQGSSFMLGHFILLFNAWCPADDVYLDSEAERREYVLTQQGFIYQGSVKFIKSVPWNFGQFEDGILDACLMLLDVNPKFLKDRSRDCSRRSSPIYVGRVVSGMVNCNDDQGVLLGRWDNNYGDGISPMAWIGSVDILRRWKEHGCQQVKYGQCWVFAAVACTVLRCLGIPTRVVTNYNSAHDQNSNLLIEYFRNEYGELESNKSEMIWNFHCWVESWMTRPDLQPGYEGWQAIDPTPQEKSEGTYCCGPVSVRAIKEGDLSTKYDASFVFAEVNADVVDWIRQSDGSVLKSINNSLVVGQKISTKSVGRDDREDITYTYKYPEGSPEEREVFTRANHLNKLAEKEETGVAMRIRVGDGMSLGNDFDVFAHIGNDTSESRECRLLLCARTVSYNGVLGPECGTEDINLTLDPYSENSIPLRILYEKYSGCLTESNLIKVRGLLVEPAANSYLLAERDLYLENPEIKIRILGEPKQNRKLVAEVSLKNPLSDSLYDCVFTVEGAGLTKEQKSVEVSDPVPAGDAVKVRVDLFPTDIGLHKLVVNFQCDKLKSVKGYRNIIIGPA
# [2] = tested on: obese individuals with NASH; conditions: 4-12 weeks, no reported change in body mass index; cited from earlier work
# [3] = tested on: children with NASH; conditions: cited from earlier work
# [4] = tested on: leukocyte cystine; conditions: delivery to the small intestine; cited from earlier work
# [5] = in vivo; design: species or system rats; conditions: rat, 20 mg/kg
# Source text: Samples were taken from the portal vein (PV) and jugular vena cava (JVC) in rats that were either pre-treated with or naïve to cysteamine therapy.
# The portal vein delivers blood, and therefore drug, directly to the liver where it diffuses into the periportal region. The concentration of drug in the periportal region is therefore at a maximum level and is higher than the drug concentration in the hepatic lobular region (which drains into the hepatic central veins and then into the JVC). This is possible because as blood, and therefore drug, traverses through the hepatic lobule away from the portal vein its contents will undergo some degree of first-pass metabolism. It is postulated here, that patients with type 2 pediatric NASH, receiving a greater drug exposure at the site of maximal disease (i.e., periportal region; recall Type 2 NASH is characterized by portal inflammation), are more likely to respond to drug therapy than children with type 1 NASH.
# [6] = tested on: acetaminophen-induced hepatocellular injury; conditions: mice and humans; cited from earlier work
# [7] = tested on: obese children who had steatosis; conditions: after vitamin E 400-1000 IU/day for 4-10 months, cited from earlier work
compound,measurement,setting,value
NCCSSCCN [Cystamine],liver fibrosis induced by carbon tetrachloride,[1],ameliorate liver fibrosis
CC(=O)N[C@@H](CS)C(=O)O [N-acetylcysteine],aminotransferase levels and gamma-GT,[2],improvement
NCCS [cysteamine],"blood liver inflammation markers (ALT, AST, GGT)","[3]; children with NASH, 6 and 12 months treatment",statistically significant improvement
same,primary endpoint of improved histology,[3]; placebo controlled 12 month study group,not achieved
same,chance of histological improvement compared with the placebo group,"[3]; post-hoc analysis, children <65 kg body weight, placebo controlled 12 month study",4 fold
same,"decrease in leukocyte cystine, time after treatment",[4],within an hour
same,Tmax,[5],5 to 10 min
same,prevention of acetaminophen-induced hepatocellular injury,[6],effective
vitamin E,mean AST levels,"[7]; decreased from 104±61 IU/L, P<0.002",33±11 IU/L
same,mean ALT levels,"[7]; decreased from 175±106 IU/L, P<0.01",40±26 IU/L
